Patent publication US11945787B2, “Substituted imidazoles for preventing and/or treating cell or tissue necrosis” (Ela Pharma Ltd, priority 2015, dated 2024)

Key:
[1] = tested on: Balb/c mice, myocardial ischemia/reperfusion; assay: Myocardial ischemia/reperfusion in mice; assay type: in vivo, mouse; conditions: 30 mg/kg IV 20 min before ischemia and at reperfusion; 30 min ischemia, 6 h reperfusion
Experimental: Male Balb/c mice (20-25 g; Charles River; Milan; Italy) were housed in a controlled environment and provided with standard rodent chow and water.
Mice were subjected to 30 minutes of myocardial ischemia and 6 hours of reperfusion, using published methodologies (Yet et al, 2001). Study groups consisted of sham, vehicle control, and inhibitor (n=8/group, see below). Briefly, mice were anesthetized with pentobarbital sodium (60 mg/kg body weight) with additional doses given as needed to maintain anesthesia. Mice were intubated and mechanically ventilated with 100% oxygen. Mice received a first IV dose of the active inhibitor 1-(2-(4-methylpiperazin-1-yl)-4,5-dihydro-1H-imidazol-1-yl)propan-1-one (M059-0891) (30 mg/kg) and their chest was opened. […] The area of necrosis, as a % of AAR was quantified. […]
After the reperfusion period, 1 mL/kg of a 4% thioflavin S solution is injected IV in order to delineate the no-reflow area. […] The areas of ischemic and nonischemic regions are computed and expressed as a percentage of the slice, as are the % of necrotic and non-necrotic tissue. […] AAR (unstained blue area) is expressed as a percentage of the LV mass. The extent of necrosis is calculated as a percentage of the LV mass, and the infarct size expressed as a percentage of the AAR (infarct size=extent of necrosis/extent of AAR).

PC12 cells = assay: KCN-induced necrosis of PC12 cells, LDH release; assay type: cell-based, rat; conditions: Rattus norvegicus, PC-12, 5 h, KCN, PC12, LDH release (Table 5)
In short: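 PC12 cells held 1 h in glucose-free DMEM with 2 mM pyruvate and 10% dialyzed FCS, given compounds in DMSO (0.1% final) 30 min before KCN, then exposed 5 h. Necrosis read as LDH released to medium as % of total (0.1% Triton X-100 lysate), A490; protection from LDH release with vs without inhibitor.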

For CCC(=O)N1CCN=C1N1CCN(C)CC1 [M059-0891, 1-(2-(4-methylpiperazin-1-yl)-4,5-dihydro-1H-imidazol-1-yl)propan-1-one], the “necrosis and infarct size” value [1] was “significant reduction”, the inhibition at 0.0001 µM (PC12 cells; 0.1 nM, read-out: % protection at 0.1 nM) was 25% and the inhibition at 0.001 µM (PC12 cells; 1 nM, read-out: % protection at 1 nM) was 36%. For the same molecule, the inhibition at 0.01 µM (PC12 cells; 10 nM, read-out: % protection At 10 nM) was 55%, the inhibition at 0.1 µM (PC12 cells; 0.1 μM, read-out: % protection at 0.1 μM) was 84% and the inhibition at 1 µM (PC12 cells; 1 μM, read-out: % protection at 1 μM) was 85%.
